From patent US4804651A, “Methods and compositions for the treatment of psoriasis” (Board of Regents, The University of Texas System, priority 1987, dated 1989)
Read-outs that look alike come from different tables or passages of the source.

What was measured:
[1] = cited from earlier work
[2] = Progression of AIDS in the individual treated for psoriasis; assay type: in vivo, human; details: 800 mg orally per day
Source text: Of the following examples, examples I through IV disclose toxicity data obtained from the manufacturer of AZT, Burroughs Wellcome Drug Co., developed during the course of obtaining FDA approval for use of the drug in the treatment of AIDS. However, treatment protocols effective in treating psoriasis are similar.
An individual developed severe psoriasis and AIDS-related complex (ARC). As their immunity diminished over the next eight months to a T4 count of 14/mm^3, the psoriasis became more extensive, including 60% of their body, all nails and digits.
Ten months after developing the ARC and psoriasis, the individual developed Pneumocystis carinii pneumonia (PCP) and esophageal candidiasis.

rats [3] = details: intravenous (IV); cited from earlier work
mice = details: intravenous (IV); cited from earlier work
dogs = details: IV dose levels up to 85 mg/kg/day for 2 weeks; cited from earlier work
rats [4] = details: IV dose levels up to 150 mg/kg/day for one month; cited from earlier work
rats [5] = details: oral, up to 500 mg/kg/day; cited from earlier work
Beagle dogs = details: cited from earlier work
Cynomolgus monkeys [6] = details: cited from earlier work
Cynomolgus monkeys [7] = details: cited from earlier work; remark: listed apart in the source
rats [8] = details: cited from earlier work
pregnant rats = details: up to 500 mg/kg oral, gestation day 6 through 15; cited from earlier work
[9] = test system: cultured human lymphocytes; details: in vitro; cited from earlier work
[10] = in vivo; cited from earlier work
[11] = test system: patients with AIDS OR AIDS-related complex and HTLV-III/LAV viremia; details: cited from earlier work
[12] = test system: patients (AIDS) recovered from Pneumocystis carinii pneumonia (PCP) and late AIDS-Related Complex (ARC); details: cited from earlier work
[13] = Treatment of severe psoriasis in an individual with AIDS-related complex
[14] = one female dog, sacrificed on day 14

Cc1cn([C@H]2C[C@H](N=[N+]=[N-])[C@@H](CO[C@@H]3O[C@H](C(=O)O)[C@@H](O)[C@H](O)[C@H]3O)O2)c(=O)[nH]c1=O [GAZT, 5'-glucuronide of AZT]
activity of the metabolite ([1]; in vivo): inactive | metabolite identification ([1]; plasma and urine): major plasma and urinary metabolite | clearance from plasma (metabolite) ([1]; plasma): rapidly cleared from plasma | plasma level relative to the corresponding AZT level ([1]; plasma): 2-3 ×

Cc1cn([C@H]2C[C@H](N=[N+]=[N-])[C@@H](CO)O2)c(=O)[nH]c1=O [azidothymidine, 3'-azido-3'-deoxythymidine]
efficacy in relieving the progression of AIDS [2]: no efficacy in relieving the progression of this individual's AIDS | LD50 (rats [3]): greater than 70 mg/kg | LD50 (mice): greater than 70 mg/kg | alterations (dogs): No significant alterations were seen | changes (rats [4]): no changes were noted | histologic changes in liver and kidney (rats [5]): very minimal histologic changes in the liver and kidney of a few animals were observed | leukopenia and thrombocytopenia (Beagle dogs; Beagle dogs, oral, all dose levels (125, 250, 500 mg/kg/day), 2 weeks): Moderate to marked leukopenia and thrombocytopenia was noted at all dose levels | vomiting and fecal alterations (Beagle dogs; Beagle dogs, oral, high doses, daily for 2 weeks): Vomiting and fecal alterations (with blood) were seen in dogs receiving high doses | bone marrow and lymphoid tissue findings (Beagle dogs; Beagle dogs, oral, further studies): hypocellularity of the bone marrow; hypoactive lymphoid tissues were also noted | gross gastrointestinal findings (Beagle dogs; high dose dogs and a mid-dose female, high dose female): hemorrhage in the gastrointestinal tract in the high dose dogs and a mid-dose female, as well as a maturational defect with mucosal atrophy in the intestinal tract of the high dose female were observed | alkaline phosphatase, BUN, and creatinine (Beagle dogs; [14]): alkaline phosphatase, BUN, and creatinine were elevated | weight loss (Beagle dogs; [14]): significant weight loss | vomiting (Cynomolgus monkeys [6]; Cynomolgus monkeys, high dose male, oral, 2 weeks): frequent vomiting in the high dose male | RBC, HCT, Hgb (Cynomolgus monkeys [6]; all treatment levels (125, 250, 500 mg/kg/day), oral 2 weeks, values still within normal limits): a slight nondose-related decrease (values still within normal limits) in RBC, HCT, Hgb at all treatment levels | SGPT (Cynomolgus monkeys [6]; treated males and the high dose female, values still within normal limits): a slight increase in SGPT (Values still within normal limits) in treated males and the high dose female | recovery of hematology values (Cynomolgus monkeys [7]; 26-39 day post-dosing recovery period): These values returned to normal limits during the 26-39 day post-dosing recovery period | RBCs, hemoglobin, and hematocrit (Cynomolgus monkeys [7]; 34, 100, or 300 mg/kg by gavage, day 21): dose-related decreases in RBCs, hemoglobin, and hematocrit at day 21 | hemoglobin and hematocrit (Cynomolgus monkeys [7]; remainder of treatment period after day 21): hemoglobin and hematocrit remained stable | RBCs (Cynomolgus monkeys [7]; until the end of treatment): further reduced until the end of treatment | glucose (rats [8]; high dose female rats, day 89): A mild increase in glucose was observed only in high dose female rats on day 89 | clinical observation (staining of the anogenital area) (rats [8]; high dose male rats): occasional staining of the anogenital area in high dose male rats | SGOT (rats [8]; high dose rats at various times): a mild decrease in SGOT in high dose rats at various times | hematologic changes or gross pathologic changes (rats [8]; rats, 13 weeks oral): no hematologic changes or gross pathologic changes | treatment related deaths (rats [8]; rats, 56, 167 or 500 mg/kg/day by gavage, 13 weeks): no treatment related deaths | maternal weight (pregnant rats): a slight decrease in maternal weight was noted | clastogenicity [9]: clastogenic | Cmax ([1]; Group A, IV, 1.0 mg/kg Q 8 hr): 0.44 ± 0.14 microgram/ml | Cmax ([1]; Group A, oral, 2.0 mg/kg Q 8 hr): 0.53 ± 0.11 microgram/ml | Cmax ([1]; Group B, IV, 2.5 mg/kg Q 8 hr): 1.17 ± 0.49 microgram/ml | Cmax ([1]; Group B, oral, 5.0 mg/kg Q 8 hr): 1.37 ± 0.58 microgram/ml | Cmax ([1]; Group C, IV, 2.5 mg/kg Q 4 hr): 1.06 ± 0.03 microgram/ml | Cmax ([1]; Group C, oral, 5.0 mg/kg Q 4 hr): 1.57 ± 0.81 microgram/ml | Cmax ([1]; Group D, IV, 5.0 mg/kg Q 4 hr): 2.28 ± 0.31 microgram/ml | Cmax ([1]; Group D, oral, 10.0 mg/kg Q 4 hr): 3.14 ± 0.73 microgram/ml | Cmax ([1]; Group E, IV, 7.5 mg/kg Q 4 hr): 4.71 ± 0.79 microgram/ml | Cmax ([1]; Group E, oral, 15.0 mg/kg Q 4 hr): 10.40 ± 3.47 microgram/ml | total body clearance ([1]; IV doses from 1.0 to 5.0 mg/kg): approximately 1900 ml/min/70 kg | dose excreted unchanged in the urine as AZT ([1]; IV dosing): about 25% | plasma decay after the end of infusion ([1]; IV): biexponential decay after the end of infusion indicating two-compartmental pharmacokinetics | mean half-life ([1]; all dose levels, IV and oral dosing): approximately 1.0 hr | dose proportionality of Cmax and AUC ([1]; between 5.0 and 7.5 mg/kg IV and 10.0 and 15 mg/kg oral): a disproportional increase in peak concentrations (Cmax) and area under the plasma-concentration time curve (AUC) | drug or metabolite accumulation ([1]; chronic IV or oral dosing): No unexpected drug or metabolite accumulation was observed | dose proportionality of concentrations ([1]; doses to 5.0 mg/kg IV and 10 mg/kg oral): increased proportionally with doses to 5.0 and 10 mg/kg, for IV and oral administration respectively, indicating dose-independent kinetics up to these dosages | renal clearance ([1]; estimated): about 500 ml/min | bioavailability ([1]; oral, all dose levels): 60-70% | cause of incomplete bioavailability ([1]; oral): appears to be due to first-pass metabolism, rather than reduced absorption | side effects [10]: hematologic abnormalities such as anemia, neutropenia, bone marrow toxicity, headache, mild CNS symptoms, insomnia | mild confusion or anxiety (number of patients) ([11]; 29 patients): Three | transient elevations in transaminases (number of patients) ([11]; 29 patients): Five | transient erythematous rash (number of patients) ([11]; 29 patients): one | decline in hemoglobin ([11]; by six weeks): all patients had some decline in hemoglobin by six weeks, the change was not proportional to the starting dose | deaths ([11]; during the year since the trial was initiated): Four | anemia which warranted dose reduction or temporary interruption ([11]; human, in vivo, po): Twenty of 28 patients | dose-limiting toxicity / response of neutropenia ([11]; human, in vivo): appeared to be the dose-limiting toxicity. Neutropenia responded favorably to reduction in dose of AZT | effect on electrolytes or renal or cardiac function ([11]; human, in vivo): no effect on electrolytes or renal or cardiac function | headache (number of patients) ([11]; human, in vivo): 8 patients | neutropenia (number of patients) ([11]; human, in vivo): 13 patients | generalized pruritus (number of patients) ([11]; one episode, 29 patients): one | bone marrow biopsies ([11]; three patients): megaloblastic changes | reversibility of anemia ([11]; when the drug is discontinued): reversible in most patients when the drug is discontinued | reduction in dosage or interruption of treatment ([12]; 250 mg every 4 hours (1.5 grams daily)): Many patients on AZT required a reduction in dosage or interruption of treatment, primarily because of anemia | deaths (AZT group) ([12]; 250 mg every 4 hours, as of Sept. 18, 1986, 16 in patients receiving placebo): one | patients requiring blood transfusions ([12]; human, in vivo): approximately 25% | decreases in hemoglobin and neutrophils ([12]; second month of therapy, dose decreased or drug discontinued): decreases in hemoglobin and neutrophils occurred during the second month of therapy and appeared to be reversible if the dose was decreased or drug discontinued | patients with greater than 25% reduction in hemoglobin ([12]; vs 13 of 137 patients receiving placebo, preliminary review): 47 of 145 | psoriasis clearance ([13]; 800 mg orally per day): completely cleared | time to complete clearing of psoriasis ([13]; 800 mg orally per day): two to three | time to significant improvement in lesion pruritus ([13]; 800 mg orally per day): ≤ 24 h | lesion pruritus ([13]; 800 mg orally per day, within 24 hours): a significant improvement in the lesion pruritus | pruritus after AZT was held for 7 days and restarted at half dose ([13]; AZT held 7 days, restarted at half dose): The pruritus returned temporarily | anemia ([13]; after a month, restarted at half dose): The AZT was held for 7 days after a month for anemia | time until psoriasis began to clear ([13]; in vivo): 24 h | improvement of psoriasis ([13]; over a period several weeks): significant improvement over a period several weeks | nail regrowth and psoriasis at three months ([13]; three months): nail regrowth was normal and the psoriasis was completely clear
